Results reported in the supplement of paper PMC10307832.

Assays:
Assay in all cases: relative viability (nuclei count vs DMSO), 5 days (fraction); higher = more cells survive
Carfilzomib + Linsitinib = compound: CC(C)C[C@H](NC(=O)[C@H](CCc1ccccc1)NC(=O)CN1CCOCC1)C(=O)N[C@@H](Cc1ccccc1)C(=O)N[C@@H](CC(C)C)C(=O)[C@@]1(C)CO1 [Carfilzomib] + C[C@]1(O)C[C@@H](c2nc(-c3ccc4ccc(-c5ccccc5)nc4c3)c3c(N)nccn32)C1 [Linsitinib] (partner 1 µM)
Outline: (§1)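 Values are medians from duplicate plates. Each reflects relative viability, defined as the nuclei count of treated wells over that of vehicle wells. Lung cancer cell lines in 1536-well plates were pin-tool dosed one day after seeding with one drug alone or with a fixed anchor-drug dose plus five library-drug doses (not always all listed) in √10 steps, then fixed, stained and imaged at 4× after 5 days.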

Olaparib + AZD7762 = compound: O=C(c1cc(Cc2n[nH]c(=O)c3ccccc23)ccc1F)N1CCN(C(=O)C2CC2)CC1 [Olaparib] + NC(=O)Nc1cc(-c2cccc(F)c2)sc1C(=O)N[C@H]1CCCNC1 [AZD7762] (partner 0.2 µM)
Outline: as §1

Crizotinib + Linsitinib = compound: C[C@@H](Oc1cc(-c2cnn(C3CCNCC3)c2)cnc1N)c1c(Cl)ccc(F)c1Cl [Crizotinib] + C[C@]1(O)C[C@@H](c2nc(-c3ccc4ccc(-c5ccccc5)nc4c3)c3c(N)nccn32)C1 [Linsitinib] (partner 1 µM)
Outline: as §1

Crizotinib + Foretinib = compound: C[C@@H](Oc1cc(-c2cnn(C3CCNCC3)c2)cnc1N)c1c(Cl)ccc(F)c1Cl [Crizotinib] + COc1cc2c(Oc3ccc(NC(=O)C4(C(=O)Nc5ccc(F)cc5)CC4)cc3F)ccnc2cc1OCCCN1CCOCC1 [Foretinib] (partner 0.25 µM)
Outline: as §1

Crizotinib + OSI-027 = compound: C[C@@H](Oc1cc(-c2cnn(C3CCNCC3)c2)cnc1N)c1c(Cl)ccc(F)c1Cl [Crizotinib] + COc1cccc2cc(-c3nc([C@H]4CC[C@H](C(=O)O)CC4)n4ncnc(N)c34)[nH]c12 [OSI-027] (partner 0.5 µM)
Outline: as §1

Cell Line NCI-H1793 has a relative viability (Carfilzomib + Linsitinib; first compound 0.003162 µM) of 0.737, a relative viability (Carfilzomib + Linsitinib; first compound 0.01 µM) of 0.761 and a relative viability (Carfilzomib + Linsitinib; first compound 0.03162 µM) of 0.939. The relative viability (Carfilzomib + Linsitinib; first compound 0.1 µM) was 0.585, the relative viability (Olaparib + AZD7762; first compound 0.08 µM) was 0.747 and the relative viability (Olaparib + AZD7762; first compound 0.253 µM) was 0.438. For the same cell line, the relative viability (Olaparib + AZD7762; first compound 2.53 µM) was 0.488, the relative viability (Olaparib + AZD7762; first compound 8 µM) was 0.283 and the relative viability (Crizotinib + Linsitinib; first compound 0.01 µM) was 1.01. The relative viability (Crizotinib + Linsitinib; first compound 0.03162 µM) was 0.922, the relative viability (Crizotinib + Linsitinib; first compound 0.1 µM) was 0.837 and the relative viability (Crizotinib + Linsitinib; first compound 1 µM) was 0.87. It also gave a relative viability (Crizotinib + Foretinib; first compound 0.03162 µM) of 0.879, a relative viability (Crizotinib + Foretinib; first compound 0.1 µM) of 0.604 and a relative viability (Crizotinib + Foretinib; first compound 1 µM) of 0.705. The relative viability (Crizotinib + OSI-027; first compound 0.03162 µM) was 0.256, the relative viability (Crizotinib + OSI-027; first compound 0.1 µM) was 0.278 and the relative viability (Crizotinib + OSI-027; first compound 1 µM) was 0.266.
